Laboratory results: patent publication US11753397B2, “Cereblon binders for the degradation of ikaros” (C4 Therapeutics, Inc., priority 2018, dated 2023)

System: NCIH929.1 cells
Assay: Cell viability assay (CellTiter-Glo 2.0, ATP quantification)
Format: cell-based
Conditions: NCIH929.1 cell viability, CellTiter-Glo 2.0, 96 hr incubation, top concentration 1 μM
Summary of the method: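 Read-out is CellTiter-Glo 2.0 luminescence (ATP), after 96 h compound exposure at 37 °C, with a day-0 plate giving the CT0 baseline. Duplicate 10-point half-log titration from 1 μM applied to 750 cells/well in RPMI, 10% FBS, 0.05 mM 2-mercaptoethanol.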

Row | SMILES | GI50 [nM]
1 | O=C1CCC(N2C(=O)c3cccc(NCc4cnn(C5CCN(CC6CCC6)CC5)c4)c3C2=O)C(=O)N1 (stereo not shown) [Compound 131, 4-(((1-(1-(cyclobutylmethyl)piperidin-4-yl)-1H-pyrazol-4-yl)methyl)amino)-2-(2,6-dioxopiperidin-3-yl)isoindoline-1,3-dione] | < 100
2 | CC1(CN2CCC(n3cc(CNc4cccc5c4C(=O)N(C4CCC(=O)NC4=O)C5=O)cn3)CC2)CCCCC1 (stereo not shown) [Compound 132, 2-(2,6-dioxopiperidin-3-yl)-4-(((1-(1-((1-methylcyclohexyl)methyl)piperidin-4-yl)-1H-pyrazol-4-yl)methyl)amino)isoindoline-1,3-dione] | < 100
3 | O=C1CCC(N2C(=O)c3cccc(NCc4cnn(C5CCN(C6CCCCC6)CC5)c4)c3C2=O)C(=O)N1 (stereo not shown) [Compound 133, 4-(((1-(1-cyclohexylpiperidin-4-yl)-1H-pyrazol-4-yl)methyl)amino)-2-(2,6-dioxopiperidin-3-yl)isoindoline-1,3-dione] | < 100
4 | O=C1CCC(N2C(=O)c3cccc(NCc4cnn(C5CCN(C6CC6)CC5)c4)c3C2=O)C(=O)N1 (stereo not shown) [Compound 134, 4-(((1-(1-cyclopropylpiperidin-4-yl)-1H-pyrazol-4-yl)methyl)amino)-2-(2,6-dioxopiperidin-3-yl)isoindoline-1,3-dione] | < 100
5 | O=C1CCC(N2C(=O)c3cccc(NCc4cnn(C5CCN(C6CC7(CCC7)C6)CC5)c4)c3C2=O)C(=O)N1 (stereo not shown) [Compound 135, 2-(2,6-dioxopiperidin-3-yl)-4-(((1-(1-(spiro[3.3]heptan-2-yl)piperidin-4-yl)-1H-pyrazol-4-yl)methyl)amino)isoindoline-1,3-dione] | < 100
6 | CC1(CN2CCC(n3cc(CNc4cccc5c4C(=O)N(C4CCC(=O)NC4=O)C5=O)cn3)CC2)CC1 (stereo not shown) [Compound 136, 2-(2,6-dioxopiperidin-3-yl)-4-(((1-(1-((1-methylcyclopropyl)methyl)piperidin-4-yl)-1H-pyrazol-4-yl)methyl)amino)isoindoline-1,3-dione] | < 1
7 | O=C1CCC(N2C(=O)c3cccc(NCc4cnn(C5CCN(CC6(C(F)(F)F)CC6)CC5)c4)c3C2=O)C(=O)N1 (stereo not shown) [Compound 137, 2-(2,6-dioxopiperidin-3-yl)-4-(((1-(1-((1-(trifluoromethyl)cyclopropyl)methyl)piperidin-4-yl)-1H-pyrazol-4-yl)methyl)amino)isoindoline-1,3-dione] | < 100
8 | CC1(CN2CCC(n3cc(CNc4cccc5c4C(=O)N(C4CCC(=O)NC4=O)C5=O)cn3)CC2)CCCC1 (stereo not shown) [Compound 138, 2-(2,6-dioxopiperidin-3-yl)-4-(((1-(1-((1-methylcyclopentyl)methyl)piperidin-4-yl)-1H-pyrazol-4-yl)methyl)amino)isoindoline-1,3-dione] | < 1
9 | CC1(CN2CCC(n3cc(CNc4cccc5c4C(=O)N(C4CCC(=O)NC4=O)C5=O)cn3)CC2)CCC1 (stereo not shown) [Compound 139, 2-(2,6-Dioxo-piperidin-3-yl)-4-({1-[1-(1-methyl-cyclobutylmethyl)-piperidin-4-yl]-1H-pyrazol-4-ylmethyl}-amino)-isoindole-1,3-dione] | < 100
10 | O=C1CCC(N2C(=O)c3cccc(NCc4cnn(C5CCN(CC6(C(F)(F)F)CCC6)CC5)c4)c3C2=O)C(=O)N1 (stereo not shown) [Compound 140, 2-(2,6-dioxopiperidin-3-yl)-4-(((1-(1-((1-(trifluoromethyl)cyclobutyl)methyl)piperidin-4-yl)-1H-pyrazol-4-yl)methyl)amino)isoindoline-1,3-dione] | < 100
11 | Cn1cc(CNc2cccc3c2C(=O)N(C2CCC(=O)NC2=O)C3=O)cn1 (stereo not shown) [Compound 141, 2-(2,6-dioxopiperidin-3-yl)-4-(((1-methyl-1H-pyrazol-4-yl)methyl)amino)isoindoline-1,3-dione] | < 100
12 | CCn1cc(CNc2cccc3c2C(=O)N(C2CCC(=O)NC2=O)C3=O)cn1 (stereo not shown) [Compound 142, 2-(2,6-dioxopiperidin-3-yl)-4-(((1-ethyl-1H-pyrazol-4-yl)methyl)amino)isoindoline-1,3-dione] | < 100
13 | CC(C)Cn1cc(CNc2cccc3c2C(=O)N(C2CCC(=O)NC2=O)C3=O)cn1 (stereo not shown) [Compound 143, 2-(2,6-dioxopiperidin-3-yl)-4-(((1-isobutyl-1H-pyrazol-4-yl)methyl)amino)isoindoline-1,3-dione] | > 100
14 | CC(C)(C)n1cc(CNc2cccc3c2C(=O)N(C2CCC(=O)NC2=O)C3=O)cn1 (stereo not shown) [Compound 144, 4-(((1-(tert-butyl)-1H-pyrazol-4-yl)methyl)amino)-2-(2,6-dioxopiperidin-3-yl)isoindoline-1,3-dione] | < 100
15 | O=C1CCC(N2C(=O)c3cccc(NCc4cnn(-c5ccccc5)c4)c3C2=O)C(=O)N1 (stereo not shown) [Compound 145, 2-(2,6-dioxopiperidin-3-yl)-4-(((1-phenyl-1H-pyrazol-4-yl)methyl)amino)isoindoline-1,3-dione] | < 100
16 | O=C1CCC(N2C(=O)c3cccc(NCc4cnn(C5CCN(C(=O)OCc6ccccc6)CC5)c4)c3C2=O)C(=O)N1 (stereo not shown) [Compound 146, benzyl 4-(4-(((2-(2,6-dioxopiperidin-3-yl)-1,3-dioxoisoindolin-4-yl)amino)methyl)-1H-pyrazol-1-yl)piperidine-1-carboxylate] | < 100

Row | SMILES | GI50 [nM]
17 | CCOC(=O)N1CCC(n2cc(CNc3cccc4c3C(=O)N(C3CCC(=O)NC3=O)C4=O)cn2)CC1 (stereo not shown) [Compound 147, ethyl 4-(4-(((2-(2,6-dioxopiperidin-3-yl)-1,3-dioxoisoindolin-4-yl)amino)methyl)-1H-pyrazol-1-yl)piperidine-1-carboxylate] | < 100
18 | O=C1CCC(N2C(=O)c3cccc(NCc4cnn(C5CCN(C(=O)OCC(Cl)(Cl)Cl)CC5)c4)c3C2=O)C(=O)N1 (stereo not shown) [Compound 148, 2,2,2-trichloroethyl 4-(4-(((2-(2,6-dioxopiperidin-3-yl)-1,3-dioxoisoindolin-4-yl)amino)methyl)-1H-pyrazol-1-yl)piperidine-1-carboxylate] | < 100
19 | CC(C)(C)COC(=O)N1CCC(n2cc(CNc3cccc4c3C(=O)N(C3CCC(=O)NC3=O)C4=O)cn2)CC1 (stereo not shown) [Compound 149, neopentyl 4-(4-(((2-(2,6-dioxopiperidin-3-yl)-1,3-dioxoisoindolin-4-yl)amino)methyl)-1H-pyrazol-1-yl)piperidine-1-carboxylate] | < 1
20 | O=C1CCC(N2C(=O)c3cccc(NCc4cnn(C5CCCC5)c4)c3C2=O)C(=O)N1 (stereo not shown) [Compound 151, 4-[(1-cyclopentylpyrazol-4-yl)methylamino]-2-(2,6-dioxo-3-piperidyl)isoindoline-1,3-dione] | < 100
21 | CC(C)n1cc(CNc2cccc3c2C(=O)N(C2CCC(=O)NC2=O)C3=O)cn1 (stereo not shown) [Compound 152, 2-(2,6-dioxo-3-piperidyl)-4-[(1-isopropylpyrazol-4-yl)methylamino]isoindoline-1,3-dione] | < 100
22 | O=C1CCC(N2C(=O)c3cccc(NCc4cnn(CC(F)(F)F)c4)c3C2=O)C(=O)N1 (stereo not shown) [Compound 153, 2-(2,6-dioxo-3-piperidyl)-4-[[1-(2,2,2-trifluoroethyl)pyrazol-4-yl]methylamino]isoindoline-1,3-dione] | < 100
23 | CN(CCCn1cc(CNc2cccc3c2C(=O)N(C2CCC(=O)NC2=O)C3=O)cn1)C(=O)OC(C)(C)C (stereo not shown) [Compound 154, tert-butyl N-[3-[4-[[[2-(2,6-dioxo-3-piperidyl)-1,3-dioxo-isoindolin-4-yl]amino]methyl]pyrazol-1-yl]propyl]-N-methyl-carbamate] | < 100
24 | O=C1CCC(N2C(=O)c3cccc(NCc4cnn(CC5CCOCC5)c4)c3C2=O)C(=O)N1 (stereo not shown) [Compound 155, 2-(2,6-dioxo-3-piperidyl)-4-[[1-(tetrahydropyran-4-ylmethyl)pyrazol-4-yl]methylamino]isoindoline-1,3-dione] | < 100
25 | CC(=O)N1C2CCC1CC(n1cc(CNc3cccc4c3C(=O)N(C3CCC(=O)NC3=O)C4=O)cn1)C2 (stereo not shown) [Compound 156, 4-[[1-(8-acetyl-8-azabicyclo[3.2.1]octan-3-yl)pyrazol-4-yl]methylamino]-2-(2,6-dioxo-3-piperidyl)isoindoline-1,3-dione] | < 100
26 | CN1CCC(n2cc(CNc3cccc4c3C(=O)N(C3CCC(=O)NC3=O)C4=O)cn2)CC1 (stereo not shown) [Compound 157, 2-(2,6-dioxo-3-piperidyl)-4-[[1-(1-methyl-4-piperidyl)pyrazol-4-yl]methylamino]isoindoline-1,3-dione] | < 100
27 | O=C1CCC(N2C(=O)c3cccc(NCc4cnn(C5CCCCC5)c4)c3C2=O)C(=O)N1 (stereo not shown) [Compound 158, 4-[(1-cyclohexylpyrazol-4-yl)methylamino]-2-(2,6-dioxo-3-piperidyl)isoindoline-1,3-dione] | < 100
28 | CC(=O)N1CCC(n2cc(CNc3cccc4c3C(=O)N(C3CCC(=O)NC3=O)C4=O)cn2)CC1 (stereo not shown) [Compound 159, 4-[[1-(1-acetyl-4-piperidyl)pyrazol-4-yl]methylamino]-2-(2,6-dioxo-3-piperidyl)isoindoline-1,3-dione] | < 100
29 | O=C1CCC(N2C(=O)c3cccc(NCc4cnn(C5CCN(CC(F)(F)F)CC5)c4)c3C2=O)C(=O)N1 (stereo not shown) [Compound 160, 2-(2,6-Dioxo-piperidin-3-yl)-4-({1-[1-(2,2,2-trifluoro-ethyl)-piperidin-4-yl]-1H-pyrazol-4-ylmethyl}-amino)-isoindole-1,3-dione] | < 100
30 | CC(C)(C)NC(=O)N1CCC(n2cc(CNc3cccc4c3C(=O)N(C3CCC(=O)NC3=O)C4=O)cn2)CC1 (stereo not shown) [Compound 161, 4-(4-{[2-(2,6-Dioxo-piperidin-3-yl)-1,3-dioxo-2,3-dihydro-1H-isoindol-4-ylamino]-methyl}-pyrazol-1-yl)-piperidine-1-carboxylic acid tert-butylamide] | < 100
31 | O=C1CCC(N2C(=O)c3cccc(NCc4cnn(C5CC5)c4)c3C2=O)C(=O)N1 (stereo not shown) [Compound 163, 4-[(1-Cyclopropyl-1H-pyrazol-4-ylmethyl)-amino]-2-(2,6-dioxo-piperidin-3-yl)-isoindole-1,3-dione] | < 100
